6 compounds from patent US20230014151A1, “COMBINATION ANTIVIRAL THERAPY FOR MEASLES” (The Trustees of Columbia University in the City of New York, priority 2019, published 2023) can be followed below.

Where two headings read alike, the source gives them in different places. Square brackets hold non-standard residues; d marks the D form. Peptide text beside a SMILES is read from it. * marks the point of attachment. X4 = CC(C)CCC[C@@H](C)[C@H]1CC[C@H]2[C@@H]3CC=C4C[C@@H](OC(=O)CCOCCOCCOCCOCCNC(=O)C*)CC[C@]4(C)[C@H]3CC[C@]12C; X3 = CC(C)CCC[C@@H](C)[C@H]1CC[C@H]2[C@@H]3CC=C4C[C@@H](OC(=O)C*)CC[C@]4(C)[C@H]3CC[C@]12C; Cbz = O=C(OCc1ccccc1)*

One may read the IC50 as the midpoint of a concentration-inhibition curve. The IC90 is the concentration needed for an effect of 90%.

In the experiment the target is viral glycoproteins (H and F); Nectin-4 (Measles virus, UniProt Q786F3). The experiment is described as follows: beta-galactosidase complementation-based fusion assay, Nectin-4 target cells.
Setting [1] is: Nectin4 IC50, Table 3 (extended version).
[2] abbreviates: IC50, Table 2 (salient peptides), Nectin-4 target cells.

Chain of viral glycoproteins (H and F); Nectin-4 (Q786F3 24-112): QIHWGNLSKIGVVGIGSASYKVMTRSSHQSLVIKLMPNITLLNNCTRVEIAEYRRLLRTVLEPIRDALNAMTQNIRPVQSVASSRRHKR

Under setting [1], `CC[C@H](C)[C@H](NC(=O)[C@H](C)NC(=O)[C@H](CC(N)=O)NC(=O)CNC(=O)[C@H](CC(C)C)NC(=O)[C@H](CC(N)=O)NC(=O)[C@@H](NC(=O)CNC(=O)[C@@H](NC(=O)[C@H](CC(=O)O)NC(=O)[C@H](CC(C)C)NC(=O)[C@H](CCCNC(=N)N)NC(=O)[C@H](CCC(=O)O)NC(=O)[C@H](CC(C)C)NC(=O)[C@H](CO)NC(=O)[C@@H](NC(=O)[C@@H]1CCCN1C(=O)[C@@H]1CCCN1C(=O)CNC(=O)[C@H](CO)NC(=O)CNC(=O)[C@H](CO)NC(=O)CNC(=O)CNC(=O)[C@H](Cc1ccccc1)NC(=O)[C@@H](Cc1ccccc1)NC(=O)OCc1ccccc1)[C@@H](C)CC)C(C)C)[C@@H](C)O)C(=O)N[C@@H](C)C(=O)N[C@@H](CCCCN)C(=O)N[C@@H](CC(C)C)C(=O)N[C@@H](CCC(=O)O)C(=O)N[C@@H](CC(=O)O)C(=O)N[C@@H](C)C(=O)N[C@@H](CCCCN)C(=O)N[C@@H](CCC(=O)O)C(=O)N[C@@H](CC(C)C)C(=O)N[C@@H](CC(C)C)C(=O)N[C@@H](CCC(=O)O)C(=O)N[C@@H](CO)C(=O)N[C@@H](CO)C(=O)N[C@@H](CC(=O)O)C(=O)N[C@@H](CCC(N)=O)C(=O)N[C@H](C(=O)N[C@@H](CC(C)C)C(=O)N[C@@H](CCCNC(=N)N)C(=O)N[C@@H](CS)C(=O)O)[C@@H](C)CC` [FIP-HRC450-485 (no GSGSG)] yielded an IC50 of 2.77 ± 1.64 µM. The 90% effect concentration (IC90) (read-out: Nectin4 IC90) is 6.37 ± 4.18 µM.
Regarding `CC[C@H](C)[C@H](NC(=O)[C@H](C)NC(=O)[C@H](CC(N)=O)NC(=O)CNC(=O)[C@H](CC(C)C)NC(=O)[C@H](CC(N)=O)NC(=O)[C@@H](NC(=O)CNC(=O)[C@@H](NC(=O)[C@H](CC(=O)O)NC(=O)[C@H](CC(C)C)NC(=O)[C@H](CCCNC(=N)N)NC(=O)[C@H](CCC(=O)O)NC(=O)[C@H](CC(C)C)NC(=O)[C@H](CO)NC(=O)[C@@H](NC(=O)[C@@H]1CCCN1C(=O)[C@@H]1CCCN1C(=O)CNC(=O)[C@H](CO)NC(=O)CNC(=O)[C@H](CO)NC(=O)CNC(=O)CNC(=O)[C@H](Cc1ccccc1)NC(=O)[C@@H](Cc1ccccc1)NC(=O)OCc1ccccc1)[C@@H](C)CC)C(C)C)[C@@H](C)O)C(=O)N[C@@H](C)C(=O)N[C@@H](CCCCN)C(=O)N[C@@H](CC(C)C)C(=O)N[C@@H](CCC(=O)O)C(=O)N[C@@H](CC(=O)O)C(=O)N[C@@H](C)C(=O)N[C@@H](CCCCN)C(=O)N[C@@H](CCC(=O)O)C(=O)N[C@@H](CC(C)C)C(=O)N[C@@H](CC(C)C)C(=O)N[C@@H](CCC(=O)O)C(=O)N[C@@H](CO)C(=O)N[C@@H](CO)C(=O)N[C@@H](CC(=O)O)C(=O)N[C@@H](CCC(N)=O)C(=O)N[C@H](C(=O)N[C@@H](CC(C)C)C(=O)N[C@@H](CCCNC(=N)N)C(=O)NCC(=O)N[C@@H](CO)C(=O)NCC(=O)N[C@@H](CO)C(=O)NCC(=O)N[C@@H](CS)C(=O)O)[C@@H](C)CC` [FIP-HRC450-485], the IC90 is above 10 µM. Under setting [2], the IC50 was 4.24 ± 0.812 µM. The same compound returned an IC50 under setting [1] of 4.24 ± 0.812 µM. In addition, for the setting “read-out: Nectin4 IC90”, the IC90 is above 10 µM.
The compound `CC(C)CCC[C@@H](C)[C@H]1CC[C@H]2[C@@H]3CC=C4C[C@@H](OC(=O)CSC[C@H](NC(=O)CNC(=O)[C@H](CO)NC(=O)CNC(=O)[C@H](CO)NC(=O)CNC(=O)CNC(=O)[C@H](Cc5ccccc5)NC(=O)[C@@H](Cc5ccccc5)NC(=O)OCc5ccccc5)C(=O)O)CC[C@]4(C)[C@H]3CC[C@]12C` [FIP-chol] (Cbz-[dF]FGGSGSGC(X3)-OH) yielded an IC90 of 7.615 ± 0.013 µM. This compound had an IC50 under setting [2] of 4 ± 1.08 µM. Moreover, the IC50 under setting [1] is above 10 µM. Moreover, the IC90 (read-out: Nectin4 IC90) is above 10 µM.
For the compound `CC(C)CCC[C@@H](C)[C@H]1CC[C@H]2[C@@H]3CC=C4C[C@@H](OC(=O)CCOCCOCCOCCOCCNC(=O)CSC[C@H](NC(=O)CNC(=O)[C@H](CO)NC(=O)CNC(=O)[C@H](CO)NC(=O)CNC(=O)CNC(=O)[C@H](Cc5ccccc5)NC(=O)[C@@H](Cc5ccccc5)NC(=O)OCc5ccccc5)C(=O)O)CC[C@]4(C)[C@H]3CC[C@]12C` [FIP-peg4-chol] (Cbz-[dF]FGGSGSGC(X4)-OH), the IC90 turned out to be 7.615 ± 0.013 µM. The IC90 (read-out: Nectin4 IC90) amounted to 7.615 ± 0.013 µM.
The compound `CC[C@H](C)[C@H](NC(=O)[C@H](C)NC(=O)[C@H](CC(N)=O)NC(=O)CNC(=O)[C@H](CC(C)C)NC(=O)[C@H](CC(N)=O)NC(=O)[C@@H](NC(=O)CNC(=O)[C@@H](NC(=O)[C@H](CC(=O)O)NC(=O)[C@H](CC(C)C)NC(=O)[C@H](CCCNC(=N)N)NC(=O)[C@H](CCC(=O)O)NC(=O)[C@H](CC(C)C)NC(=O)[C@H](CO)NC(=O)[C@@H](NC(=O)[C@@H]1CCCN1C(=O)[C@@H]1CCCN1C(C)=O)[C@@H](C)CC)C(C)C)[C@@H](C)O)C(=O)N[C@@H](C)C(=O)N[C@@H](CCCCN)C(=O)N[C@@H](CC(C)C)C(=O)N[C@@H](CCC(=O)O)C(=O)N[C@@H](CC(=O)O)C(=O)N[C@@H](C)C(=O)N[C@@H](CCCCN)C(=O)N[C@@H](CCC(=O)O)C(=O)N[C@@H](CC(C)C)C(=O)N[C@@H](CC(C)C)C(=O)N[C@@H](CCC(=O)O)C(=O)N[C@@H](CO)C(=O)N[C@@H](CO)C(=O)N[C@@H](CC(=O)O)C(=O)N[C@@H](CCC(N)=O)C(=O)N[C@H](C(=O)N[C@@H](CC(C)C)C(=O)N[C@@H](CCCNC(=N)N)C(=O)NCC(=O)N[C@@H](CO)C(=O)NCC(=O)N[C@@H](CO)C(=O)NCC(=O)N[C@@H](CSCC(=O)NCCOCCOCCOCCOCCC(=O)O[C@H]1CC[C@@]2(C)C(=CC[C@H]3[C@@H]4CC[C@H]([C@H](C)CCCC(C)C)[C@@]4(C)CC[C@@H]32)C1)C(=O)O)[C@@H](C)CC` [HRC450-485-peg4-chol] came in with an IC90 of 0.856 ± 0.0786 µM. In addition, the IC90 (read-out: Nectin4 IC90) was 0.856 ± 0.0786 µM.
The compound `CC[C@H](C)[C@H](NC(=O)[C@H](C)NC(=O)[C@H](CC(N)=O)NC(=O)CNC(=O)[C@H](CC(C)C)NC(=O)[C@H](CC(N)=O)NC(=O)[C@@H](NC(=O)CNC(=O)[C@@H](NC(=O)[C@H](CC(=O)O)NC(=O)[C@H](CC(C)C)NC(=O)[C@H](CCCNC(=N)N)NC(=O)[C@H](CCC(=O)O)NC(=O)[C@H](CC(C)C)NC(=O)[C@H](CO)NC(=O)[C@@H](NC(=O)[C@@H]1CCCN1C(=O)[C@@H]1CCCN1C(C)=O)[C@@H](C)CC)C(C)C)[C@@H](C)O)C(=O)N[C@@H](C)C(=O)N[C@@H](CCCCN)C(=O)N[C@@H](CC(C)C)C(=O)N[C@@H](CCC(=O)O)C(=O)N[C@@H](CC(=O)O)C(=O)N[C@@H](C)C(=O)N[C@@H](CCCCN)C(=O)N[C@@H](CCC(=O)O)C(=O)N[C@@H](CC(C)C)C(=O)N[C@@H](CC(C)C)C(=O)N[C@@H](CCC(=O)O)C(=O)N[C@@H](CO)C(=O)N[C@@H](CO)C(=O)N[C@@H](CC(=O)O)C(=O)N[C@@H](CCC(N)=O)C(=O)N[C@H](C(=O)N[C@@H](CC(C)C)C(=O)N[C@@H](CCCNC(=N)N)C(=O)NCC(=O)N[C@@H](CO)C(=O)NCC(=O)N[C@@H](CO)C(=O)NCC(=O)N[C@@H](CS)C(=O)O)[C@@H](C)CC` [HRC450-485] had an IC90 above 10 µM. This compound displayed a half-maximal inhibitory concentration (IC50) under setting [2] above 10 µM. Further, the IC50 under setting [1] is above 10 µM. Also, under “read-out: Nectin4 IC90”, the IC90 is above 10 µM.
